For series [1], the system named is PK1 neuroblastoma cells treated with TPrP. As to the kind of experiment: cells. The format is cell-based. Conditions: for EC50: Neuroblastoma cell.
Series [2] has the same test system. As to the kind of experiment: cells. The series is classed as cell-based. The following applies: Neuroblastoma cell.
Series [3] addresses T1, VEGFR-1 (Homo sapiens, UniProt P17948). As to the kind of experiment: VEGFR inhibition of vatalanib analogs. The format is biochemical. The following applies: relative to vatalanib.
The next series has as its target PARP-1 (Homo sapiens, UniProt P09874). As to the kind of experiment: PARP1 chemiluminescent assay kit (BPS Bioscience). The series is classed as biochemical. The following applies: FIG. 15. The method, then:
ABT-888 is a known PARP1 inhibitor serving as pharmacological control for the assay. […] The assay was performed using the BPS Bioscience PARP1 chemiluminescent assay kit according to the manufacturer's instructions.

The target of a further series is T2, NAMPT (Homo sapiens, UniProt P43490).
T2 construct: purchased Abcam ab221819
T2 sequence (P43490 whole entry): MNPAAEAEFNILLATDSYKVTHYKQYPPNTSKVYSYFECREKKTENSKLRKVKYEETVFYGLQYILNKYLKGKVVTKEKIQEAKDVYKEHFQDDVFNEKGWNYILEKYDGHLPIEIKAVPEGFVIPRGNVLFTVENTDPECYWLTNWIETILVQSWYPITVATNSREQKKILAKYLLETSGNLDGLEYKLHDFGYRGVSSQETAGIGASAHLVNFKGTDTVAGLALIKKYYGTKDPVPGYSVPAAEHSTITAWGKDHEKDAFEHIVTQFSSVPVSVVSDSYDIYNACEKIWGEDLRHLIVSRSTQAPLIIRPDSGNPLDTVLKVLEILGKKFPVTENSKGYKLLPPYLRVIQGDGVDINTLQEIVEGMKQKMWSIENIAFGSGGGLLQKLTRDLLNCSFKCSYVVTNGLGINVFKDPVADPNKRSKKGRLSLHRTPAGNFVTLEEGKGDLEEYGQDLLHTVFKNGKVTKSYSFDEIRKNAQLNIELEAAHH
As to the kind of experiment: Colorimetric NAMPT activity assay (Abcam, ab221819). The series is classed as biochemical. Conditions: tested at 5 μM or 20 μM. The method, then: Compounds were tested in a colorimetric NAMPT activity assay (Abcam, ab221819). Each data point represents a duplicate sample. […] Compounds were tested at 5 μM (A) or 20 μM (B).

Series [4] concerns Cells exposed to TPrP. As to the kind of experiment: cells. The following applies: read-out: Viability EC50.
For series [5], the system named is Human stem cell-derived neurons. As to the kind of experiment: Cellular PD model, α-synuclein PFFs-seeded human neurons. The series is classed as cell-based. The following applies: 2 μM, PFFs 50 μg/ml, 17 days. The method, then: Human stem cell-derived neurons (30 days post-differentiation) were seeded with 50 μg/ml preformed α-synuclein fibrils (PFFs), treated with DMCM-10049 at 2 μM or vehicle, and fixed 17 days later for analysis. Control cells were not PFFs-seeded. A: Dendritic spines were labeled with the marker F-actin using Phalloidin-iFluor 488 (Abcam). B: pα-syn* (red, antibody GTX50222, GeneTex)+DAPI (blue) staining. Quantification was done using ImageJ (NIH), statistical analysis with one way ANOVA (Prism7). Mean values and SDs of 8 images (A) or 6 images (B) per each condition are shown. ****P<0.0001; ***P<0.001; ns=non significant.

Another series deals with GABAA R subtypes. The following applies: relative to DMCM; cited from earlier work.
Series [6] relates to Murine stem-cell derived neurons. As to the kind of experiment: Cellular PD/synucleinopathy model, PFFs-seeded murine neurons, neurite length. The following applies: FIG. 14. The series is classed as cell-based. The method, then: Murine stem-cell derived neurons (8 days post-differentiation) were seeded with PFFs (A, B: 4 μg/ml; C, D: 3 μg/ml) and treated with the test compounds at the dose indicated, or with the vehicle DMSO, during the last 2 days of differentiation. Control cells were not PFFs-seeded. Cells were photographed by phase contrast microscopy. Neurite length was quantified using the NeuronJ plugin of ImageJ (NIH), statistical analysis was done in pairs by comparing compound-treated cells with the DMSO control (student's t-test, Prism8). Mean values and SEMs of 4 fields per each condition are shown. Each field contained approximately 50 to 100 neurons. Images shown correspond to a representative area of one field. ****P<0.0001; ***P<0.001; **P<0.01; *P<0.05; ns=not significant.

The conditions of series [7]: in vivo; cited from earlier work.
Series [8] relates to Primary mouse cortical neurons. The format is cell-based.
The subject of series [9] is PK1 cells exposed to TPrP. The series is classed as cell-based.
Series [10] concerns PK1 cells treated with TPrP. The series is classed as cell-based.
Series [11] has as its target T1, VEGFR-1. The following applies: subtype not given; cited from earlier work.
Series [12] relates to Cells exposed to TPrP. Conditions: read-out: Viability EC50.
The mark [13] stands for this setting: read-out: EC50 (TPrP toxicity rescue / neuroprotection).

Here are results for twelve compounds from patent US12590094B2, “Compounds for the treatment of neurodegenerative and metabolic disorders” (UNIVERSITY OF FLORIDA RESEARCH FOUNDATION, INCORPORATED, priority 2019, dated 2026).

“Also recorded” adds a separate entry of the source. Like-named read-outs stand apart in the source and are kept apart here. Bounds are passed on as bounds.

PARP-1, sequence (P09874 whole entry): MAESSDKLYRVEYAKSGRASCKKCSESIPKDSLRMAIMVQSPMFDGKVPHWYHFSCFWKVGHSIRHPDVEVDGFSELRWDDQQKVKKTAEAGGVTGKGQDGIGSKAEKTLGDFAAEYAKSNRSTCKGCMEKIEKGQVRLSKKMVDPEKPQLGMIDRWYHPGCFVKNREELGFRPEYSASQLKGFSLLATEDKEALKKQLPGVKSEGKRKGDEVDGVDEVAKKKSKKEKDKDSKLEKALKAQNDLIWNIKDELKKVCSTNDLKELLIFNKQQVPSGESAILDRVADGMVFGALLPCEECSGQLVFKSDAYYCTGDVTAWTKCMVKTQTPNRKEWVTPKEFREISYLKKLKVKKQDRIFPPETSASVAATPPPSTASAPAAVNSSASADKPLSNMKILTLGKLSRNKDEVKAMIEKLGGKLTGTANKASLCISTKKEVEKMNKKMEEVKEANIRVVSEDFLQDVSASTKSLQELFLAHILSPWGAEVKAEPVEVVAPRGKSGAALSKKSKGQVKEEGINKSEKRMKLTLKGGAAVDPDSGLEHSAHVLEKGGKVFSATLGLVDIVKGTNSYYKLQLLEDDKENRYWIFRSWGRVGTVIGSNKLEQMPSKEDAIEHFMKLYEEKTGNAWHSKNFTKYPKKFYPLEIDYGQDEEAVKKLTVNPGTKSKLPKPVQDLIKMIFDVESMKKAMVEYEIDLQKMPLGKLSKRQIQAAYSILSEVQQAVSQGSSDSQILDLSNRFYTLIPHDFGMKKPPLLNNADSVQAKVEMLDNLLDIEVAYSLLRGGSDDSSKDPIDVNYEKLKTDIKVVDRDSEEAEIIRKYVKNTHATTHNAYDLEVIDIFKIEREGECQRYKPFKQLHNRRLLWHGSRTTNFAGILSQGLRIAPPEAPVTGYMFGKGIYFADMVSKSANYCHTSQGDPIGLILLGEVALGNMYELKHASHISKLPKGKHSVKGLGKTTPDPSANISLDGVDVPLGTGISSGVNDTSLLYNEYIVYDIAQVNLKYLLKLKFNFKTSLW
T1 sequence (P17948 27-1338, species assumed): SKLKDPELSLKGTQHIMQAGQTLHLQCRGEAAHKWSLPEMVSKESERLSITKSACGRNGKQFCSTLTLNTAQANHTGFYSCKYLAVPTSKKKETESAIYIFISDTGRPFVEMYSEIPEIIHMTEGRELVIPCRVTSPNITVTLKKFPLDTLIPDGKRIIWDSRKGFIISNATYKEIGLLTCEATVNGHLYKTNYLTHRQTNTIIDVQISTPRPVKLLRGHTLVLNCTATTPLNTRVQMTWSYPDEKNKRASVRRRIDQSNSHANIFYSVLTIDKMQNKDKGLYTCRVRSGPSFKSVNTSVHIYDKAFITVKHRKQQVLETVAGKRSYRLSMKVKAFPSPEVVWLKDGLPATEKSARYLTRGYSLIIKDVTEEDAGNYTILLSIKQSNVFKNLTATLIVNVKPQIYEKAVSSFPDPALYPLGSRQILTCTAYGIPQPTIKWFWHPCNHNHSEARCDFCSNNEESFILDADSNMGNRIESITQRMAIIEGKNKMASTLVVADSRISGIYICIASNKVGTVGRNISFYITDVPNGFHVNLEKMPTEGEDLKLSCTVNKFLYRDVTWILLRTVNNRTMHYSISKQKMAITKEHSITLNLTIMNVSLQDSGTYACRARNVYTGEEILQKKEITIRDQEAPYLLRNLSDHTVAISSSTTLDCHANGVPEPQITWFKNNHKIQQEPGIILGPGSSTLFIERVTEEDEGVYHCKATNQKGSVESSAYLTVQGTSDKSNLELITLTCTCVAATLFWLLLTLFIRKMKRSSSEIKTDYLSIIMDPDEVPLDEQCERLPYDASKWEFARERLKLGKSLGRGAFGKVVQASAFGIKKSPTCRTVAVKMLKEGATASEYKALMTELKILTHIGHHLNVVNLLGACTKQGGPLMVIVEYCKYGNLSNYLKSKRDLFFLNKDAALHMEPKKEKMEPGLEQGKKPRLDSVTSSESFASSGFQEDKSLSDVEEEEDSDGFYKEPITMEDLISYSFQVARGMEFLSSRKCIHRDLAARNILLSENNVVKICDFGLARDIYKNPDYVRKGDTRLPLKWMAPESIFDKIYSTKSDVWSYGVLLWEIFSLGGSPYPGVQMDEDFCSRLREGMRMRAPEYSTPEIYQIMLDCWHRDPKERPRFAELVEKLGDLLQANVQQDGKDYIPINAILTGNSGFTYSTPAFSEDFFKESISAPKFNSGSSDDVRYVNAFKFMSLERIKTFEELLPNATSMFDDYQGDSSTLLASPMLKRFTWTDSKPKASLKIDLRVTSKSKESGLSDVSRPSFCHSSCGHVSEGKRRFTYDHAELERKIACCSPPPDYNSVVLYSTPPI

`CC(=O)c1cccc(Nc2nnc(Cc3ccncc3)c3ccccc23)c1` [SR1-134005]: in series [1], the “fold more potent than vatalanib as a neuroprotective agent” value is “more than 6 fold”. In addition, the EC50 stood at 6.3 nM in series [1] (setting [13]), 6.3 nM in series [1] (read-out: Viability EC50), 105 nM in series [2] (read-out: NAD EC50) and 20 nM in the series with Cells exposed to TPrP [4]. The “fold less potent than vatalanib at VEGFR-1” value on VEGFR-1 [3] is listed as 13 fold. In addition, on PARP-1, the PARP-1 inhibition result is “absence of PARP-1 inhibition”. Besides, on NAMPT, the “Activation of NAMPT” value was “Activation of NAMPT”.
As to `CCc1c(C(=O)NN)ncc2[nH]c3cc(OC)c(OC)cc3c12` [DMCM-10049], in series [5], the “dendritic spines (F-actin)” value is on record as “preserves dendritic spines” and the “pα-syn* levels” value is given as “reduces pα-syn* levels”. Also, the PARP-1 inhibition entry on PARP-1 was “absence of PARP-1 inhibition”. Further, the EC50 with Cells exposed to TPrP [4] is approximately 500 nM. Also, in the series with GABAA R subtypes, the “reduced potency for most GABAA R subtypes” value is on record as “over 100 ×”.
Regarding `Clc1ccc(Nc2nnc(Cc3ccncc3)c3ccccc23)cc1` [Vatalanib, reference compound], the EC50 in series [1] (setting [13]) stood at 39.9 nM; in [1] (read-out: Viability EC50), 40 nM; in series [2] (read-out: EC50 (NAD assay)), 195 nM; in series [2] (read-out: NAD EC50), 195 nM; in the series on Cells exposed to TPrP [4] it was 45 nM. Also, the “loss of neurites induced by PFFs exposure” value (“loss of neurites induced” below) in series [6] is given as “prevent loss of neurites”. The oral bioavailability result in series [7] was “high”.
As for NAD, the “neuritic breakdown and neuronal vacuolation induced by TPrP” value in series [8] is “suppressed”.
With `CCOC(=O)c1ncn2c1CN(C)C(=O)c1cc(F)ccc1-2` [flumazenil], the “protection against TPrP toxicity” value in series [9] is “neither rescued TPrP-induced toxicity; also recorded: absence of protection”.
For the compound `COc1ccc(-c2cc(=O)c3c(OC)c(OC)c(OC)c(OC)c3o2)cc1OC` [SR-01000712262, 2-(3,4-dimethoxyphenyl)-5,6,7,8-tetramethoxy-4H-chromen-4-one], the results for the EC50 in series [1] (read-out: Viability EC50) and in series [2] (read-out: NAD EC50) were 580 nM and 664 nM, respectively. The “loss of neurites induced” value in series [6] is listed as “prevent loss of neurites”. At PARP-1, the PARP-1 inhibition entry is recorded as “absence of PARP-1 inhibition”. The “Activation of NAMPT” value at NAMPT is given as “not”.
With `CCc1c(C(=O)OC)ncc2[nH]c3cc(OC)c(OC)cc3c12` [SR1-75869, DMCM, reference compound], the EC50 in [1] (read-out: Viability EC50) came to 120 nM. For the same compound, the EC50 in [2] (read-out: NAD EC50) was 749 nM. In addition, in series [8], the “neuritic breakdown and neuronal vacuolation induced by TPrP” value was “suppressed”; the “rescue of TPrP-induced toxicity (cell viability)” value was “rescues TPrP-induced toxicity”. Besides, in series [10], the “excessive protein ADP ribosylation induced by TPrP” value is reported as “mitigates excessive protein ADP ribosylation”. Moreover, on NAMPT, the “Activation of NAMPT” value is “not”.
Regarding `COc1cc(Nc2nnc(Cc3ccncc3)c3ccccc23)cc(OC)c1` [SR1-151915], the EC50 was found to be 71.4 nM in series [1] (setting [13]), 71.4 nM in series [1] (read-out: Viability EC50) and 280 nM in [2] (read-out: NAD EC50). The IC50 on VEGFR-1 [11] was more than 1000 nM.
Take `O=C(NCCCn1ccnc1)c1cnn2c(C(F)(F)F)cc(-c3ccccc3)nc12` [SR1-293229]: the EC50 in [1] (read-out: Viability EC50) is 1.9 nM; in [2] (read-out: NAD EC50), 6.8 nM; with Cells exposed to TPrP [12], 2 nM; in the series with Cells exposed to TPrP [4], 1.5 nM. Also, the “loss of neurites induced” value in [6] is listed as “prevent loss of neurites”. For the same compound, the PARP-1 inhibition result at PARP-1 is “absence of PARP-1 inhibition”. On NAMPT, the “Activation of NAMPT” value was “not”.
With `Cc1ccc(-c2nnc3c4ccccc4c(C)nn23)cc1S(=O)(=O)N1CCOCC1` [SR5-22843], the results for the EC50 in series [1] (read-out: Viability EC50) and in series [2] (read-out: NAD EC50) were 30 nM and 219 nM, respectively. The PARP-1 inhibition entry on PARP-1 was “absence of PARP-1 inhibition”.
Consider `Cc1ccc(-c2nnc3c4ccccc4c(C)nn23)cc1S(=O)(=O)NC(C)(C)CO` [SR1-115259], for which the EC50 in series [1] (read-out: Viability EC50) came to 5.1 nM; in series [2] (read-out: NAD EC50), 167 nM. Also, in [6], the “loss of neurites induced” value is recorded as “prevent loss of neurites”. The “Activation of NAMPT” value at NAMPT is on record as “not”.
Regarding `NS(=O)(=O)c1ccc(Nc2nc(-c3ccncc3)cs2)cc1` [SR1-477186], the EC50 in [1] (read-out: Viability EC50) worked out at 26 nM; in series [2] (read-out: NAD EC50) it was 365 nM. Besides, the “loss of neurites induced” value in series [6] is recorded as “prevent loss of neurites”. Moreover, on NAMPT, the “Activation of NAMPT” value is “not”.

The IC50 is the concentration at which inhibition is half-maximal.
